Experimental data: US20080125432A1 (Devgen NV, priority 2004, published 2008)

How the values were obtained:
Male mice (NRMI) = experiment: In vivo telemetry ECG recording in mice, intraperitoneal application; conditions: consecutive dosing i.p. (3-15 μM/kg), n=5
Protocol: Male mice (NRMI) were anesthetized with a gas mixture of isoflurane, nitrous oxide and oxigen. Leads connected to a telemetry transmitter (TA10EA-F20, DSI, St. Paul, USA) were fixed by suture in the xiphoid and ventral neck region. The telemetry transmitter was placed under the skin on the back. Wounds were closed in layers and the animals were allowed to recover for at least 1 week.
On the day of the experiment the animals receive consecutive doses of vehicle i.p. at 60 min dosing intervals. ECG tracings (12 s duration) was recorded using the Data Sciences A.R.T. system. After completion of the experiment ECGs were analyzed automatically by Data Sciences ECG software (DSI, St. Paul, USA). QT and QRS intervals were measured manually in the stored ECGs. QTc was calculated from the QT interval and the corresponding heart rate using Bazett's formula. Heart rate was taken from the online analysis, given by the DSI Labpro and DSI A.R.T. systems (DSI, St. Paul, USA). Finally, ECG intervals were transferred to an Excel spreadsheet, checked for plausibility, and converted into 15 min averages.

Kv1.5 = molecular target: T1, Kv1.5 (Homo sapiens, UniProt P22460); experiment: Whole-cell patch clamp in human atrial myocytes: Kv1.5 current calculated from Isus; type: cell-based
T1 construct: endogenous in cells; host or cells: freshly isolated human atrial myocytes
Protocol: (§1) The blocking profile of the compounds of the invention is determined on the following channels of the human atrial myocytes: INa, Ito, Isus and IK1 channel currents.
(§2) Human atrial myocytes: Myocytes were prepared from specimens with grossly normal anatomical aspect, excised from hearts of patients with normal P-wave electrocardiogram, undergoing bypass surgery. Human atrial sample were obtained following approval by the ethical committee. […]
(§3) Experiments were performed at room temperature (20-25° C.) for INa and at 32-34° C. for Ito, Isus, IK1. Currents were measured using the whole-cell variant of the patch clamp method. […]
(§4) After rupture of the cell membrane to enter the whole-cell mode, current amplitude and kinetics were allowed to stabilize for 3-7 min before initiating the experimental procedure. K^+ currents recorded from human atrial myocytes were elicited by a 500 ms pulse to +60 mV from a holding potential of −50 mV for Ito and Isus. Ito was measured as a peak current amplitude whereas Isus as a current present at the end of the 500 ms voltage pulse. In addition, the area under the curve, before and after compound, were measured over the course of the pulse period. […]

IK1 (Kir2.1) = molecular target: T2, IK1 (Kir2.1) (Homo sapiens, UniProt P63252); experiment: Whole-cell patch clamp in human atrial myocytes: IK1; type: cell-based; conditions: n = 3 cells
T2 construct: endogenous in cells; host or cells: freshly isolated human atrial myocytes
T2 sequence (P63252 1-427): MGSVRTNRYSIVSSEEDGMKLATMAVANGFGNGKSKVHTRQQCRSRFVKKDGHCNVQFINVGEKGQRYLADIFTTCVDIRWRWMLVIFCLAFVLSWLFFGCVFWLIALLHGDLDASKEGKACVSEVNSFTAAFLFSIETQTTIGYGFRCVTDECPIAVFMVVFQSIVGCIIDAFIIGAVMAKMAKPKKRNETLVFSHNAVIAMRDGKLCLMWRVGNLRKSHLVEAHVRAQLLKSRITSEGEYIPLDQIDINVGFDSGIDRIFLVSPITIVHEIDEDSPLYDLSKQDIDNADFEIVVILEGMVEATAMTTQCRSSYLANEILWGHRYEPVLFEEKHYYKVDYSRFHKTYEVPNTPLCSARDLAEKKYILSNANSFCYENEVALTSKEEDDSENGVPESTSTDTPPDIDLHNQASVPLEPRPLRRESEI
Protocol: as §1, §2, §3, §4

T1 sequence (P22460 whole entry): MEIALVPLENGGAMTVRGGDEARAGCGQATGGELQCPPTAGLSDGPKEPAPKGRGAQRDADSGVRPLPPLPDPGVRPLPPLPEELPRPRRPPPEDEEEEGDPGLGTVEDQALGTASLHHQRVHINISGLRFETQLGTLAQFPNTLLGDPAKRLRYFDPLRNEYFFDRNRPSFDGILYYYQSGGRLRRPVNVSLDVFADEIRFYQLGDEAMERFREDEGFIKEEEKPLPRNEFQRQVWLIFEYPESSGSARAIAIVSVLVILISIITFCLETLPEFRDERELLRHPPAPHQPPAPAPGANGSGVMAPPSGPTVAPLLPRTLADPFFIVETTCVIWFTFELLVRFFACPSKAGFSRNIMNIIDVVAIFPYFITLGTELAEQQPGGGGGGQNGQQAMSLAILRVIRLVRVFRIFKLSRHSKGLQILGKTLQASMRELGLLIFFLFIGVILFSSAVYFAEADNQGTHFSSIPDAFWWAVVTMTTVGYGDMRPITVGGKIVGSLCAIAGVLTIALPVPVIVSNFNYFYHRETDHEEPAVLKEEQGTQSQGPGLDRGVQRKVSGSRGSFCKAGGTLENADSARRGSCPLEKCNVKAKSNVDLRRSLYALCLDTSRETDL

Block at 10 μM in %: Kv1.5 (calculated) (Kv1.5; 10 μM, n = 3 cells, derived from subtracting the remaining current from the end of pulse current amplitude): 81.1 ± 3.7% | IC50 (Kv1.5; dose-response analysis, Kv1.5 derived from subtracting the remaining current from the end of pulse current amplitude): 1.4 µM | Block at 10 μM in %: IK1 (Kir2.1) (IK1 (Kir2.1)): −2.7 ± 2.0%
Compound: COc1ccccc1Nc1nc(C)c(C(=O)N[C@H]2CCC[C@@H]2OCc2ccccc2)s1 [Compound 68, 2-(2-methoxy-phenylamino)-4-methyl-thiazole-5-carboxylic acid (1S,2S)-2-(benzyloxycyclopent-1-yl) amide]
QT and QTc intervals in the mouse ECG (Male mice (NRMI); 60 min dosing intervals): significant, dose-dependent but late onset prolongation | Heart rate (Male mice (NRMI)): minor and not significant decrease | Locomotor activity (Male mice (NRMI)): reproducible rise after each of the subsequent injections | PQ and QRS in the mouse ECG (Male mice (NRMI)): did not show dose-dependent changes
